Results on one compound are retold here after publication PMC10518255, “A first-in-class pan-lysyl oxidase inhibitor impairs stromal remodeling and enhances gemcitabine response and survival in pancreatic cancer” (Nature Cancer, 2023).

Several values for one entry are separate records, joined by “and”; a condition that tells them apart may be missing. Equal values may be shown once.

One data set relates to CD8. Description: Immunohistochemistry of end-point KPC tumors: T-cell infiltration. The class given is in vivo, mouse. The note with it: KPC tumours at endpoint; individual replicate values (Extended Data 6I). The method, then:
All tissues or matrices, including patient TMAs, were fixed in 10% buffered formalin and embedded in paraffin. The 4-μm sections of samples were deparaffinized with xylene and rehydrated in graded ethanol washes. For immunohistochemistry, Bond Dewax Solution (AR9222) was used. Antigen retrieval was performed using Bond RX H2(30) protocol: HIER 30 min ER1 (citrate pH 6) OR ER2 (EDTA pH 9) at 100 °C. Slides were quenched in BOND Polymer Refine Detection (Leica Biosystems DS9800). […] Slides were digitized on an Aperio slide scanner and representative areas per tumor acquired and analyzed by researchers blinded to the conditions of the experiment.
Extended Data Fig. 6 PXS-5505 in combination with gemcitabine in a KPC model. a. Quantification of proliferating cells (Ki67 positive nuclear staining) in KPC tumors at end point, treated as indicated. 5 fields of view (500 μm × 500 μm) per mouse and 10 mice per cohort were scored. […] Quantification of percent coverage of αSMA positive staining in KPC tumors at end point, treated as indicated. 3 fields of view (1000 μm × 1000 μm) per mouse and 10 mice per cohort were scored. […] Quantification of percent coverage of PDGFR-ß positive staining in KPC tumors at end point, treated as indicated. 3 fields of view (1000 μm × 1000 μm) per mouse and 10 mice per cohort were scored. […] 3 fields of view (500 μm × 500 μm) per mouse and 10 mice per cohort were scored. […]

Data set [1] can be described thus: 3D cell viability assay (MTS, collagen). The class given is cell-based, mouse. The note with it: mouse, replicates. The method, then: (§1) The 3D cell viability assays were performed using cells embedded into polymerized collagen at 2.5 mg ml^−1. KPC CAFs and CCs were seeded at 10,000 cells per well in a 96-well plate. MTS solution (Promega) was added to the cells at a 1:20 dilution and cells were incubated at 37 °C for 1.5 h. Cell proliferation rates were measured by detecting the absorbance at 490 nm using a microplate reader and three biological repeats were performed.
(§2) Data presented as mean values +/− SD. f. […] Data presented as mean values +/− SD. […] Data presented as mean values +/− SD. […] Data presented as mean values +/− SD. Ordinary one-way ANOVA for multiple comparison test performed. Source data

For another data set, the system named is KPC CCs. In words: 3D cell viability assay (MTS, collagen). The class given is cell-based, mouse. The note with it: for 3D cell viability (MTS assay): KPC CC, replicates. On the procedure:
as §1, §2
(Tetrazolium dyes change colour on reduction, which living cells bring about.)

Another data set concerns KPC CAFs. Description: 3D cell viability assay (MTS, collagen). Type of data set: cell-based, mouse. The note with it: for 3D cell viability (MTS assay): replicates. The method, then:
as §1, §2

Data set [2] in a line: Preclinical genotoxicity and toxicity studies. The class given is in vivo.
Data set [3] can be described thus: Tolerability in mouse PDAC models. The class given is in vivo. The note with it: >6 months. From the text:
In our KPC mouse and human PDX in vivo models of PDAC, PXS-5505 reduces collagen deposition and tumor stiffness and improves perfusion of agents into the primary tumor site. […] These in vivo findings match the in vitro organotypic data showing reductions in local invasion. Furthermore, addition of PXS-5505 to gemcitabine treatment extends median survival in the KPC model by approximately 45% and decreases metastatic deposits within the liver compared to gemcitabine alone.

Regarding `Cl.Cl.NC/C=C(\F)CS(=O)(=O)c1cccc2cccnc12.O` [PXS-5505, (Z)-3-fluoro-4-(quinolin-8-ylsulfonyl)but-2-en-1-amine dihydrochloride monohydrate], the “T-cell infiltration (CD8 positive staining)” value in the data set with CD8 was 7 and 5. Also, the viability – broadly, a read-out of living cells in per cent, often relative to untreated cells – in data set [1] (KPC CAFs embedded in polymerized collagen (3D), PXS-5505 3 (unit inferred)) turned out to be 97.2%; in data set [1] (KPC CAFs embedded in polymerized collagen (3D), PXS-5505 30 (unit inferred)), 87.5%; in data set [1] (KPC CAFs embedded in polymerized collagen (3D), PXS-5505 100 (unit inferred)) it was 99%; in data set [1] (KPC cancer cells (CCs) embedded in polymerized collagen (3D), KPC CC, PXS-5505 0.3 (unit inferred)) it was 97.5%; in data set [1] (KPC cancer cells (CCs) embedded in polymerized collagen (3D), KPC CC, PXS-5505 3 (unit inferred)) it was 108%; in data set [1] (KPC cancer cells (CCs) embedded in polymerized collagen (3D), KPC CC, PXS-5505 30 (unit inferred)) it was 100%. Further, the viability in data set [1] (KPC cancer cells (CCs) embedded in polymerized collagen (3D), KPC CC, PXS-5505 100 (unit inferred)) came out at 96.7%. The “3D cell viability (MTS assay)” value in the data set with KPC CCs (PXS-5505 0.3 (unit not given)) is 101.864 and 94.0126; with KPC CCs (PXS-5505 3 (unit not given)), 104.713 and 92.4708; in the data set on KPC CCs (PXS-5505 30 (unit not given)) it was 96.3592 and 91.3434; in the data set on KPC CCs (PXS-5505 100 (unit not given)) it was 92.997 and 88.536; with KPC CCs (PXS-5505 300 (unit not given)) it was 102.736 and 92.2188 and 80.3582; with KPC CAFs (PXS-5505 0.3 (unit not given)), 102.654 and 114.604 and 89.88. The “3D cell viability (MTS assay)” value is 96.8872 and 86.2796 in the data set with KPC CAFs (PXS-5505 3 (unit not given)); 93.0804 and 86.6488 with KPC CAFs (PXS-5505 30 (unit not given)); 93.525 and 85.922 in the data set on KPC CAFs (PXS-5505 100 (unit not given)); 102.9 and 101.619 and 82.2294 with KPC CAFs (PXS-5505 300 (unit not given)). In addition, the “effect on proliferation, 3D” value with KPC CCs (KPC CCs, up to 300 µM) is “nor did it show any effect on proliferation”; in the data set with KPC CAFs (up to 300 µM), “nor did it show any effect on proliferation”. Also, the “tolerability in preclinical toxicity studies” value in data set [2] (6 months) was “well tolerated”. Moreover, the “preclinical development including genotoxicity and toxicity studies” value in data set [2] (in vivo) is “successfully passed”. Moreover, the “adverse side effects in mouse PDAC models” value in data set [3] is “no adverse side effects”.
